Measured values: paper PMC10888192, “New Derivatives of 1-(3-Methyl-1-Benzofuran-2-yl)Ethan-1-one: Synthesis and Preliminary Studies of Biological Activity” (International Journal of Molecular Sciences, 2024)

What was measured:
[1] = tested on: standard bacteria strains; assay: Antibacterial screening against standard strains (overall statements); format: cell-based; details: concentrations 16 to 512 µg/mL
Protocol: All of the obtained derivatives (1–9) were tested in vitro against a number of bacteria, including representative standard Gram-positive and Gram-negative rods. Compounds were screened for their minimal inhibitory concentrations (MICs).
The antimicrobial studies for all of the obtained compounds were conducted using reference strains of bacteria derived from international microbe collections—the American Type Culture Collection (ATCC) and the National Collection of Type Culture (NCTC). Among the reference strains there were two Gram-negative rods (P. aeruginosa ATCC 15442 and E. coli ATCC 25922) and six Gram-positive isolates (Staphylococcus aureus: NCTC 4163, ATCC 25923, ATCC 6538, ATCC 29213, S. epidermidis ATCC 12228, ATCC 35984). These strains are widely used to determine the activity of antimicrobials and check the drug susceptibility of bacteria, and their use enables comparison of assay results obtained in independent laboratories all over the world.
The antimicrobial activity of compounds was expressed by minimum inhibitory concentration values (MICs), according to CLCI reference procedures with some modifications. MIC was tested by the two-fold serial microdilution method (in 96-well microtiter plates) on MH II liquid medium. The final inoculum of all of the studied bacteria was 10^6 CFU/mL (colony forming unit per mL). […]

[2] = tested on: SW620 cells (human metastatic colon cancer); assay: MTT cytotoxicity assay, SW620; format: cell-based; details: SW-620, 72 h incubation, mean ± SD
Protocol: The cell viability was analyzed at the following six concentrations of compounds: 5, 10, 20, 40, 60 and 100 µM after 72 h incubation.
Additionally, to determine the safety profile of the tested compounds, the therapeutic index (TI) (the ratio of IC50 value in HaCaT to cancer cells K562) was calculated. […] The goal of conducting the MTT assay in this research was to select benzofuran derivatives, which manage to reduce viability of cancer cells while exposing mild effects on normal healthy cells.
The cytotoxicity was evaluated by MTT reduction assay, which measures mitochondrial respiratory function. The test was performed based on the method described by Präbst et al.. Cells (1 × 10^4/well), in logarithmic phase, were seeded into 96-well plates in appropriate medium. After 24 h, cells were exposed to test compounds. […] After 72 h, the medium with the compounds was completely removed and MTT solution (0.5 mg/mL) in fresh medium without serum was added to each well. Plates with cells were incubated for 4 h at 37 °C in the dark. Then, MTT solution was removed and replenished with 0.1 mL DMSO: isopropanol (1:1) mixture to dissolve the generated formazan crystals. The optical density was measured with a […] GO (ThermoScientific) microplate reader at 570 nm. Replicates of three wells for each dosage, including vehicle control, were analyzed for each experiment. The experiments were conducted in triplicate. Control cells which were only treated with respective medium were used as the 100% viability value. […] Additionally, to determine the safety profile of the test compounds, therapeutic indexes (TI) (the ratio of IC50 values in HaCat to cancer cells (K562, PC3, SW620, Cack-1)) were calculated.

[3] = tested on: HaCaT cells; assay: Trypan blue exclusion assay, HaCaT; format: cell-based, human; details: IC50 concentration, 72 h
Protocol: The MTT assay assesses the viable cell number based on mitochondrial enzyme activity. […] In the next step of our studies, we analyzed the total cell number and viability after exposure to the selected compounds at IC50 concentration using trypan blue exclusion assay. K562 cells were incubated with tested compounds over 72 h. […] To assess the antiproliferative properties of newly synthesized derivatives, we analyzed the total cell number. […] The parallel experiment was conducted with HaCaT cells. […] The trypan blue test rapidly assesses cell viability indirectly from cell membrane integrity, but some publications have indicated weaknesses of this viability test. […] On the other hand, cell membrane integrity may be affected even while the cell might still be able to repair itself and become fully viable.
To evaluate the antiproliferative effects of the novel benzofurans derivatives the trypan blue exclusion assay was performed. Cells (HaCat, and K562) were seeded into 12-well plates (2 × 10^4 cells/well). After 24 h, cells were exposed to the tested compounds at concentrations of their respective IC50 and incubated for 72h. […] Cells were counted by automatic cell counter (Countessa). Data obtained were expressed as the mean ± SD and the mean percentage of viable cells was calculated from three independent experiments performed in triplicate.

Compound	Antimicrobial activity against the studied strains [1]	IC50 [2] [µM]	Cell Number (×10^6) [3]
COc1cc(OC)c2c(CBr)c(C(C)=O)oc2c1 [Compound 6, 1-[3-(Bromomethyl)-4,6-Dimethoxy-1-Benzofuran-2-yl]Ethanone]	did not show antimicrobial properties against the studied strains	> 100	2.45 ± 1.63 ×10^6
CCOc1cccc2oc(C(C)=O)c(CBr)c12 [Compound 8, 1-[3-(Bromomethyl)-4-Ethoxy-1-Benzofuran-2-yl]Ethanone]		> 100	2.00 ± 0.42 ×10^6
